In US20210246115A1 (Bioimics AB, priority 2017, published 2021):
Structures can show the parent of a compound that is named as a salt. Where two headings read alike, the source gives them in different places.

Experiments:
[1] = test system: Enterococcus faecalis (ATCC29212); experiment: MIC, broth microdilution (CLSI), Enterococcus faecalis; format: cell-based; details: ATCC29212, Table XIV A. Gram-positive bacteria, read-out: E. faecalis ATCC 29212 MIC
[2] = test system: Pseudomonas aeruginosa (ATCC27853); experiment: MIC, broth microdilution (CLSI), Pseudomonas aeruginosa; format: cell-based; details: ATCC27853, Table XIV B. Gram-negative bacteria, read-out: P. aeruginosa ATCC 27853 MIC
[3] = test system: Staphylococcus aureus subsp. aureus (ATCC29213); experiment: MIC, broth microdilution (CLSI), Staphylococcus aureus ATCC29213; format: cell-based; details: Staphylococcus aureus, read-out: S. aureus ATCC 29213 MIC
[4] = test system: E. coli RNase P RNA, M1 RNA; experiment: Inhibition of bacterial RNase P activity, IC50 determination (cleavage of pATSerUG by M1 RNA); format: biochemical; details: NI: No inhibition
[5] = test system: S. aureus MRSA ATCC 33591; experiment: MIC, S. aureus MRSA ATCC 33591; format: cell-based; details: Staphylococcus aureus; Table XIV A. Gram-positive bacteria; read-out: S. aureus MRSA ATCC 33591 MIC
[6] = test system: S. aureus USA300 MRSA BAA-1717; experiment: MIC, S. aureus USA300 MRSA BAA-1717; format: cell-based; details: Staphylococcus aureus; Table XIV A. Gram-positive bacteria; read-out: S. aureus USA300 MRSA BAA-1717 MIC
E. faecium ATCC 700221 = experiment: MIC, E. faecium ATCC 700221; format: cell-based; details: Enterococcus faecium, ATCC700221; Table XIV A. Gram-positive bacteria; read-out: E. faecium ATCC 700221 MIC
S. pneumoniae ATCC 49619 = experiment: MIC, S. pneumoniae ATCC 49619; format: cell-based; details: Streptococcus pneumoniae, ATCC49619; Table XIV A. Gram-positive bacteria
M. phlei ATCC 11758 = experiment: MIC, M. phlei ATCC 11758; format: cell-based; details: Mycolicibacterium phlei, ATCC11758; Table XIV A. Gram-positive bacteria
M. fortuitum ATCC 110 = experiment: MIC, M. fortuitum ATCC 110; format: cell-based; details: Mycolicibacterium fortuitum, ATCC110; Table XIV A. Gram-positive bacteria
[7] = test system: E. coli JW5503 (efflux defective); experiment: MIC, E. coli JW5503 (efflux defective); format: cell-based; details: Escherichia coli, read-out: E. coli JW5503 (efflux defective) MIC
K. pneumoniae ATCC 43816 = experiment: MIC, K. pneumoniae ATCC 43816; format: cell-based; details: Klebsiella pneumoniae, ATCC43816; Table XIV B. Gram-negative bacteria
H. influenzae ATCC 49247 = experiment: MIC, H. influenzae ATCC 49247; format: cell-based; details: Haemophilus influenzae, ATCC49247; Table XIV B. Gram-negative bacteria
A. baumannii ATCC 17978 = experiment: MIC, A. baumannii ATCC 17978; format: cell-based; details: Acinetobacter baumannii, ATCC17978; Table XIV B. Gram-negative bacteria
[8] = test system: P. aeruginosa NTUH974 (MDR); experiment: MIC, P. aeruginosa NTUH974 (MDR); format: cell-based; details: Pseudomonas aeruginosa; Table XIV B. Gram-negative bacteria; read-out: P. aeruginosa NTUH974 (MDR) MIC
[9] = test system: N. gonorrhoeae ATCC 700825; experiment: MIC, N. gonorrhoeae ATCC 700825; format: cell-based; details: Neisseria gonorrhoeae, ATCC700825; Table XIV B. Gram-negative bacteria
[10] = test system: Escherichia coli (ATCC25922); experiment: MIC, broth microdilution (CLSI), Escherichia coli; details: for MIC: Escherichia coli
[11] = test system: Staphylococcus aureus (ATCC25923); experiment: MIC, broth microdilution (CLSI), Staphylococcus aureus ATCC25923; details: for MIC: Staphylococcus aureus, ATCC25923, read-out: S. aureus ATCC 25923 MIC
[12] = test system: E. coli RNase P RNA, M1 RNA; experiment: Initial screening for inhibition of RNase P activity (normalised cleavage of pATSerUG at maximum compound concentration); format: biochemical; details: normalised cleavage (cleavage with compound / without compound) at maximum compound concentration; hydrochloride salt
[13] = ATCC29213, Table XIV A. Gram-positive bacteria
[14] = ATCC25922, read-out: E. coli ATCC 25922 MIC, Table XIV B. Gram-negative bacteria
[15] = ATCC25922, read-out: E. coli ATCC 25922 MIC, Table XIII

| SMILES | MIC [1] | MIC [2] | MIC ([3]; ATCC29213, Table XIII) | MIC [3, 13] | MIC [5] | MIC [6] | MIC (E. faecium ATCC 700221) | MIC (S. pneumoniae ATCC 49619) | MIC (M. phlei ATCC 11758) | MIC (M. fortuitum ATCC 110) | MIC [7] | MIC (K. pneumoniae ATCC 43816) | MIC (H. influenzae ATCC 49247) | MIC (A. baumannii ATCC 17978) | MIC [8] | MIC [9] | MIC [10, 14] | IC50 [4] | MIC [10, 15] | MIC [11] | also measured |
| --- | --- | --- | --- | --- | --- | --- | --- | --- | --- | --- | --- | --- | --- | --- | --- | --- | --- | --- | --- | --- | --- |
| N[C@H]1CC[C@H](NC2CCC(c3cn(CC4CCCCC4)c4ccc(Br)cc34)CC2)CC1 (single isomer, unassigned) [Compound 266, (1r,4r)-N1-(4-(5-bromo-1-(cyclohexylmethyl)-1H-indol-3-yl)cyclohexyl)cyclohexane-1,4-diamine hydrochloride salt] | 2 µg/mL | 8 µg/mL | 2 µg/mL | 4 µg/mL | 2 µg/mL | 2 µg/mL | 2 µg/mL | 8 µg/mL | 2 µg/mL | 2 µg/mL | 4 µg/mL | 4 µg/mL | 4 µg/mL | 8 µg/mL | 16 µg/mL | 2 µg/mL | 4 µg/mL | – | – | – | IC50 ([4]; hydrochloride salt): 8.5 µM; E. coli ATCC 25922 MIC ([10]; Table XIII): 2 µg/mL; S. aureus ATCC 25923 MIC ([11]; Table XIII): 2 µg/mL |
| NC1CCC(NCCC(c2cccc(OC(F)(F)F)c2)c2cn(CC3CCCCC3)c3ccccc23)CC1 [Compound 173, (1S,4S)-N1-(3-(1-(cyclohexylmethyl)-1H-indol-3-yl)-3-(3-(trifluoromethoxy)phenyl)propyl)cyclohexane-1,4-diamine hydrochloride salt] | 2 µg/mL | 16 µg/mL | 2 µg/mL | 2 µg/mL | 2 µg/mL | 2 µg/mL | 2 µg/mL | 8 µg/mL | 1 µg/mL | 2 µg/mL | 4 µg/mL | 4 µg/mL | 4 µg/mL | 4 µg/mL | 16 µg/mL | 2 µg/mL | 4 µg/mL | 3 µM | 4 µg/mL | 2 µg/mL | – |
| Cc1cccc(C(CCNC2CCNCC2)c2cn(CC3CCCCC3)c3ccccc23)c1.Cl (centres unmarked) [Compound 122, N-(3-(1-(cyclohexylmethyl)-1H-indol-3-yl)-3-(m-tolyl)propyl)piperidin-4-amine hydrochloride salt] | 4 µg/mL | 16 µg/mL | 8 µg/mL | 4 µg/mL | 4 µg/mL | – | 2 µg/mL | 8 µg/mL | 2 µg/mL | 2 µg/mL | 4 µg/mL | 4 µg/mL | 4 µg/mL | 8 µg/mL | 16 µg/mL | 2 µg/mL | 4 µg/mL | 4 µM | 4 µg/mL | 2 µg/mL | – |
| Cc1cccc(-c2ccc3c(c2)c(CCN[C@H]2CC[C@H](N)CC2)cn3CC2CCCCC2)c1 [Compound 225, (1R,4R)-N1-(2-(1-(cyclohexylmethyl)-5-(m-tolyl)-1H-indol-3-yl)ethyl)cyclohexane-1,4-diamine hydrochloride salt] | 2 µg/mL | 8 µg/mL | 2 µg/mL | 2 µg/mL | 2 µg/mL | 2 µg/mL | 1 µg/mL | 8 µg/mL | 1 µg/mL | 1 µg/mL | 2 µg/mL | 2 µg/mL | 4 µg/mL | 2 µg/mL | 16 µg/mL | 2 µg/mL | 2 µg/mL | 11.8 µM | 2 µg/mL | 2 µg/mL | – |
| Cc1cccc(C(CC(=O)NCCC2CCNCC2)c2cn(Cc3ccccc3)c3ccccc23)c1.Cl (centres unmarked) [Compound 86, 3-(1-benzyl-1H-indol-3-yl)-N-(2-(piperidin-4-yl)ethyl)-3-(m-tolyl)propanamide hydrochloride salt] | – | – | – | – | – | – | – | – | – | – | – | – | – | – | – | – | – | – | – | – | Initial screening of RNase P Inhibition [12]: 0.78; IC50 ([4]; hydrochloride salt): 242 µM |
| Cc1cccc(C(CC(=O)NCCC2CCNCC2)c2cn(Cc3ccccc3)c3ccccc23)c1.Cl (centres unmarked) [Compound 87, 3-(1-benzyl-1H-indol-3-yl)-N-(2-(piperidin-4-yl)ethyl)-3-(m-tolyl) propanamide hydrochloride salt] | – | – | – | – | – | – | – | – | – | – | – | – | – | – | – | – | – | – | – | – | Initial screening of RNase P Inhibition [12]: 0.30; IC50 ([4]; hydrochloride salt): 154 µM |
| Cc1cccc(C(CCN[C@H]2CC[C@H](N)CC2)c2cn(CC3CCCCC3)c3ccccc23)c1 (stereo partly drawn) [Compound 199, (1R,4R)-N1-(3-(1-(cyclohexylmethyl)-1H-indol-3-yl)-3-(m-tolyl)propyl) cyclohexane-1,4-diamine hydrochloride] | 8 µg/mL | 32 µg/mL | 4 µg/mL | 8 µg/mL | 8 µg/mL | 4 µg/mL | 4 µg/mL | 16 µg/mL | 2 µg/mL | 2 µg/mL | 4 µg/mL | 16 µg/mL | 8 µg/mL | 8 µg/mL | 64 µg/mL | 4 µg/mL | 32 µg/mL | 9.8 µM | 4 µg/mL | 2 µg/mL | – |
| COc1ccccc1-c1ccc2c(c1)c(CCCN[C@H]1CC[C@H](N)CC1)cn2CC1CCCCC1 [Compound 237, (1S,4S)-N1-(3-(1-(cyclohexylmethyl)-5-(2-methoxyphenyl)-1H-indol-3-yl)propyl)cyclohexane-1,4-diamine hydrochloride salt] | 2 µg/mL | 16 µg/mL | 4 µg/mL | 2 µg/mL | 4 µg/mL | 4 µg/mL | 2 µg/mL | 8 µg/mL | 2 µg/mL | 2 µg/mL | 4 µg/mL | 4 µg/mL | 8 µg/mL | 8 µg/mL | 16 µg/mL | 2 µg/mL | 4 µg/mL | 9.8 µM | 4 µg/mL | 2 µg/mL | – |
| Cc1cccc(C(CCNC2CCC(N)CC2)c2cn(CC3CCCCCC3)c3ccccc23)c1 [Compound 245, (1S,4S)-N1-(3-(1-(cycloheptylmethyl)-1H-indol-3-yl)-3-(m-tolyl)propyl)cyclohexane-1,4-diamine hydrochloride salt] | 4 µg/mL | 16 µg/mL | 4 µg/mL | 4 µg/mL | 4 µg/mL | 2 µg/mL | 2 µg/mL | 8 µg/mL | 2 µg/mL | 2 µg/mL | 4 µg/mL | 8 µg/mL | 8 µg/mL | 4 µg/mL | 16 µg/mL | 2 µg/mL | 4 µg/mL | 13 µM | 4 µg/mL | 1 µg/mL | – |
